# In patent US20090215883A1, “Pharmaceutical formulation comprising taxane, a solid composition of taxane, a process for preparing said solid composition of taxane, a solubilizing composition of said solid composition of taxane, and a kit for the injectable formulation of taxane” (ERIOCHEM S.A., priority 2006, published 2009):
# Experiment: Laboratory tests of direct dissolution in tensoactives
# Assay type: physicochemical
smiles,measurement,setting,value
"CC(=O)O[C@@]12CO[C@@H]1C[C@H](O)[C@@]1(C)C(=O)[C@H](O)C3=C(C)[C@@H](OC(=O)[C@H](O)[C@@H](NC(=O)OC(C)(C)C)c4ccccc4)C[C@@](O)([C@@H](OC(=O)c4ccccc4)[C@H]21)C3(C)C [trihydrate docetaxel, docetaxel]",Direct dissolution in pure polysorbate 80,pure polysorbate 80,cannot be dissolved directly
same,Direct dissolution in tensoactive aqueous solution,"tensoactive aqueous solution (aqueous Solutol HS15 for the solid composition), no organic solvent",cannot be dissolved directly
